Experiments:
[1] = biological target: Beta-1 adrenergic receptor (Homo sapiens, UniProt P08588); experiment: DRUGMATRIX: Adrenergic beta1 radioligand binding (ligand: [125I] Cyanopindolol); type: cell membranes, CHO-K1, Membrane; details: cho-k1; Not Active = under 50% inhibition at 10 µM
[2] = DRUGMATRIX: Nicotinic Acetylcholine radioligand binding (ligand: [125I] Epibatidine); type: cell membranes, Membrane; details: imr-32; Not Active = under 50% inhibition at 10 µM
[3] = DRUGMATRIX: Sigma2 radioligand binding (ligand: [3H] Ifenprodil); type: cell membranes, Rattus norvegicus, Wistar, Brain, Membrane; details: Not Active = under 50% inhibition at 10 µM
[4] = biological target: Kappa-type opioid receptor (Homo sapiens, UniProt P41145); experiment: DRUGMATRIX: Opiate kappa (OP2, KOP) radioligand binding (ligand: [3H] Diprenorphine); type: cell membranes, HEK293, Membrane; details: Not Active = under 50% inhibition at 10 µM
[5] = biological target: Matrix metalloproteinase-9 (Homo sapiens, UniProt P14780); type: cell-based;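 further: inhibition of isolated MMP-9 enzyme activity toward a synthetic peptide substrate, from the DrugMatrix protease screening panel; in other assays of this panel Not Active means under 50% inhibition at 10 µM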
[6] = biological target: Mitogen-activated protein kinase 3 (Homo sapiens, UniProt P27361); experiment: DRUGMATRIX: Protein Serine/Threonine Kinase, ERK1 enzyme inhibition (substrate: Myelin Basic Protein); set-up: species or system Escherichia coli; details: Not Active = under 50% inhibition at 10 µM
Sequence of Mitogen-activated protein kinase 3 (P27361 whole entry): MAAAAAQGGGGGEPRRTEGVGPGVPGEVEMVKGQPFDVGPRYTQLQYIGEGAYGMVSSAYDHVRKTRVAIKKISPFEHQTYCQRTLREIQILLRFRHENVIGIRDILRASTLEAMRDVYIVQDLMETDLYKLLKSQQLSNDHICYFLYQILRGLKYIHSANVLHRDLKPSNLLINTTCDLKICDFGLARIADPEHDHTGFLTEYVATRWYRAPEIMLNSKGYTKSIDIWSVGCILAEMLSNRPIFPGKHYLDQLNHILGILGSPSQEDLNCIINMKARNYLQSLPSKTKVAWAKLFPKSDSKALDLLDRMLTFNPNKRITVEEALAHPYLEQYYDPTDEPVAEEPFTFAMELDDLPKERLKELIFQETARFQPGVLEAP

Sequence of Beta-1 adrenergic receptor (P08588 whole entry): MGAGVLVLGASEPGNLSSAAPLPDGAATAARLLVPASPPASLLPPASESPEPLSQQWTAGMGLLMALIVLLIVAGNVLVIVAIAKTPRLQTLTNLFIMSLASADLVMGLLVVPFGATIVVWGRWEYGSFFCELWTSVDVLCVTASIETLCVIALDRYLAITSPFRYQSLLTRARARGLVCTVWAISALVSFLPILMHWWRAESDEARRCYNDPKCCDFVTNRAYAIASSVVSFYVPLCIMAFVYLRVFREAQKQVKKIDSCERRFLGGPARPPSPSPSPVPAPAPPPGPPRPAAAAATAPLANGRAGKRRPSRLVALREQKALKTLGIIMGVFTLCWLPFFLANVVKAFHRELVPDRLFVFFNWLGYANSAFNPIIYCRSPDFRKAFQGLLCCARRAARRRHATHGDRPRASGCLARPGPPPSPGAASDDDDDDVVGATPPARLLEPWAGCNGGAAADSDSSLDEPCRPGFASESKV
Sequence of Kappa-type opioid receptor (P41145 whole entry): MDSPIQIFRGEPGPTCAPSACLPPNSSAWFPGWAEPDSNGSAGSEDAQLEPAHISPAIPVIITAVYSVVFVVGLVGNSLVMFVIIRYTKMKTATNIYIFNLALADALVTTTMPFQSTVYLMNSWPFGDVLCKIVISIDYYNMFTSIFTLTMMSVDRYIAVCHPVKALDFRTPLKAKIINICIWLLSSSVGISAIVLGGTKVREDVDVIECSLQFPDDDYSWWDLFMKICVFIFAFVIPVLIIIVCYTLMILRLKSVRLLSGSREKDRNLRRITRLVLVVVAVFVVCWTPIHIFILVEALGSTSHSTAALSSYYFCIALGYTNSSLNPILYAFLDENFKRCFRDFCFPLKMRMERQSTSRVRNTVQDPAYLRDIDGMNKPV
Sequence of Matrix metalloproteinase-9 (P14780 whole entry): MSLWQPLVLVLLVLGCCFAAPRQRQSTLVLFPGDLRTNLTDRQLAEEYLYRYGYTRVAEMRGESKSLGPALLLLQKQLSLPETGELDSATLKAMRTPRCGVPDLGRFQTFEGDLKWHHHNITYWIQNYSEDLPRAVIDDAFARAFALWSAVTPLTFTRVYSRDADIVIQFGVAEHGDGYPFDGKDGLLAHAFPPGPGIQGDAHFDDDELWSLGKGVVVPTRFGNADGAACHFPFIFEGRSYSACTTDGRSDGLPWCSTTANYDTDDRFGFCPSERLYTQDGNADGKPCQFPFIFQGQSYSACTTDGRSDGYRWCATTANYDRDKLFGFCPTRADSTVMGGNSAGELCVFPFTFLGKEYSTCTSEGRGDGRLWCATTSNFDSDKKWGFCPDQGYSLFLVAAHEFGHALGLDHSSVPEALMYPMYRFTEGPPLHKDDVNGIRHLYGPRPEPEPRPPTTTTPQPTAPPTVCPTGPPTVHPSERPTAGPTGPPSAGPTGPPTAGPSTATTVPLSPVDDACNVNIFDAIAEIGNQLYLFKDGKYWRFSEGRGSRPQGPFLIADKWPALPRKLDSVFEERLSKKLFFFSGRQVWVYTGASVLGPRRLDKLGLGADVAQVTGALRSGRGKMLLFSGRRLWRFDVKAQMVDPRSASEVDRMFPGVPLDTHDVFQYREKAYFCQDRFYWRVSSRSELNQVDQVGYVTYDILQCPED

O=C(Nc1ccc(Cl)c(Cl)c1)c1cc(Cl)cc(Cl)c1O [3,3',4',5-TETRACHLOROSALICYLANILIDE]
Not Active: IC50 [1] | IC50 [2] | Ki [2] | IC50 [3] | Ki [3] | IC50 ([4]; hek293) | IC50 [5] | IC50 [6]

Cc1ccnc2c1NC(=O)c1cccnc1N2C1CC1 [NEVIRAPINE]
Not Active: IC50 [1] | IC50 [2] | Ki [2] | IC50 [3] | Ki [3] | IC50 ([4]; hek293) | IC50 [5] | IC50 [6]

O=C1CN(/N=C/c2ccc([N+](=O)[O-])o2)C(=O)N1 [NITROFURANTOIN]
Not Active: IC50 [1] | IC50 [2] | Ki [2] | IC50 [3] | Ki [3] | IC50 ([4]; hek293) | IC50 [5] | IC50 [6]

O=c1[nH]c2ccccc2c2ccccc12
Not Active: IC50 [1] | IC50 [2] | Ki [2] | IC50 [3] | Ki [3] | IC50 ([4]; hek293) | IC50 [5] | IC50 [6]

COC(=O)C[C@](O)(CCC(C)(C)O)C(=O)O[C@@H]1C(OC)=C[C@]23CCCN2CCc2cc4c(cc2[C@H]13)OCO4 [HARRINGTONINE]
Not Active: IC50 [1] | IC50 [2] | Ki [2] | IC50 [3] | Ki [3] | IC50 ([4]; hek293) | IC50 [5] | IC50 [6]

Nc1nc(F)nc2c1ncn2[C@@H]1O[C@H](CO)[C@@H](O)[C@@H]1O [FLUDARABINE]
Not Active: IC50 [1] | IC50 [2] | Ki [2] | IC50 [3] | Ki [3] | IC50 ([4]; hek293) | IC50 [5] | IC50 [6]

CC[C@H]1OC(=O)[C@H](C)[C@@H](O[C@H]2C[C@@](C)(OC)[C@@H](O)[C@H](C)O2)[C@H](C)[C@@H](O[C@@H]2O[C@H](C)C[C@H](N(C)C)[C@H]2O)[C@](C)(O)C[C@@H](C)C(=O)[C@H](C)[C@@H](O)[C@]1(C)O [ERYTHROMYCIN]
Not Active: IC50 [1] | IC50 [2] | Ki [2] | IC50 [3] | Ki [3] | IC50 ([4]; hek293) | IC50 [5] | IC50 [6]

CCC1(c2ccccc2)C(=O)NC(=O)NC1=O [PHENOBARBITAL]
Not Active: IC50 [1] | IC50 [2] | Ki [2] | IC50 [3] | Ki [3] | IC50 ([4]; hek293) | IC50 [5] | IC50 [6]

CCN1CCN(C(=O)N[C@@H](C(=O)N[C@@H]2C(=O)N3[C@@H]2SC(C)(C)[C@@H]3C(=O)O)c2ccccc2)C(=O)C1=O [PIPERACILLIN]
Not Active: IC50 [1] | IC50 [2] | Ki [2] | IC50 [3] | Ki [3] | IC50 ([4]; hek293) | IC50 [5] | IC50 [6]

O=C(O)c1ccccc1 [BENZOIC ACID]
Not Active: IC50 [1] | IC50 [2] | Ki [2] | IC50 [3] | Ki [3] | IC50 ([4]; hek293) | IC50 [5] | IC50 [6]

OC[C@H]1O[C@@H]2O[C@H]3[C@H](O)[C@@H](O)[C@@H](O[C@H]4[C@H](O)[C@@H](O)[C@@H](O[C@H]5[C@H](O)[C@@H](O)[C@@H](O[C@H]6[C@H](O)[C@@H](O)[C@@H](O[C@H]7[C@H](O)[C@@H](O)[C@@H](O[C@H]1[C@H](O)[C@H]2O)O[C@@H]7CO)O[C@@H]6CO)O[C@@H]5CO)O[C@@H]4CO)O[C@@H]3CO [ALFADEX]
Not Active: IC50 [1] | IC50 [2] | Ki [2] | IC50 [3] | Ki [3] | IC50 ([4]; hek293) | IC50 [5] | IC50 [6]

c1ccc2sc(SSc3nc4ccccc4s3)nc2c1 [BENZOTHIAZYL DISULFIDE]
497 nM: Ki [4]
Not Active: IC50 [1] | IC50 [2] | Ki [2] | IC50 [3] | Ki [3] | IC50 [5] | IC50 [6]
1240 nM: IC50 ([4]; read-out: IC50)

CNC[C@H](O)c1ccc(O)c(O)c1 [EPINEPHRINE]
Not Active: IC50 [1] | IC50 [2] | Ki [2] | IC50 [3] | Ki [3] | IC50 ([4]; hek293) | IC50 [5] | IC50 [6]

Clc1cc(Cl)c(OCC#CI)cc1Cl [HALOPROGIN]
1150 nM: IC50 ([4]; read-out: IC50)
Not Active: IC50 [1] | IC50 [2] | Ki [2] | IC50 [3] | Ki [3] | IC50 [5] | IC50 [6]
459 nM: Ki [4]

C[N+](C)(C)CCOP(=O)([O-])OC[C@H](O)CO
Not Active: IC50 [1] | IC50 [2] | Ki [2] | IC50 [3] | Ki [3] | IC50 ([4]; hek293) | IC50 [5] | IC50 [6]

From ChEMBL document CHEMBL1909046, “DrugMatrix in vitro pharmacology data”
